Consider 8 compounds from patent US20250263439A1, “HETERODIMERIC PEPTIDE REAGENTS AND METHODS” (REGENTS OF THE UNIVERSITY OF MICHIGAN, priority 2018, published 2025).

Series [1] has as its system EGFR and ErbB2 mediated signaling. Kind of series: Effect on downstream cell signaling in SKBr3 cells (Western blot). It is filed as cell-based, human. As to the method: The effect of heterodimer binding on downstream signaling was evaluated in SKBr3 cells. SKBr3 cells were seeded in 6-well flat-bottom plates. […] EGF (#E9644, Sigma) was reconstituted to 1 mg/mL using 10 mM acetic acid, diluted with 0.1% BSA, and added to SKBr3 cells at a concentration of 100 ng/mL. Lapatinib (CDS022971, Sigma) was diluted to 100 nM in DMSO and PBS from 1 mg/mL stock solution, and was added to the cells incubated with heterodimer at concentrations of 1, 5, and 20 μM in separate wells.

The next series has as its system Flo1-HER2 cells. Kind of series: Confocal binding of FITC-labeled candidate peptides to Flo1-HER2 cells. It counts as cell-based. As to conditions: FITC label, among five leading candidates. As to the method: A FITC label was attached to each peptide, and binding to Flo1-HER2 and QhTERT cells (control) was imaged using confocal microscopy. […] From the model, this peptide was determined to bind to HER2 domain 3. The peptide was then labeled for deep tissue imaging with a Cy5.5 fluorophore via a GGGSK (SEQ ID NO: 3) linker on the C-terminus, hereafter KSP*-Cy5.5. Cy5.5 was chosen for high quantum yield and photostability. The linker prevents steric hindrance by spatially separating the fluorophore from the peptide. A scrambled sequence PPSNFKR (SEQ ID NO: 4) was developed for use as control by altering the conformationally rigid spacer PNP and moving both hydrophobic and hydrophilic amino acids at the C-terminus. This control peptide also was linked to Cy5.5 via GGGSK (SEQ ID NO: 3), hereafter PPS*-Cy5.5. […] The fluorescence emission peak occurs at 708 nm in the NIR spectrum.

For series [2], the system named is OE33 human xenograft tumor. The series is described as follows: Immunofluorescence of OE33 xenograft tumor sections ex vivo. As to the method: Immunofluorescence was performed to validate target expression in sections of OE33 human xenograft tumor ex vivo.
The subject of series [3] is human OE33 xenograft tumors. Kind of series: In vivo fluorescence (FL) imaging of OE33 xenograft tumors (IRDye800). The arrangement: species or system mice. Conditions: for Fluorescence T/B ratio, mean (±SD): 2 hours post-injection, n=6 mice. As to the method: (§1) FL and PA images were collected following systemic administration of QRH*-KSP*-E3-IRDye800 and (GGGAGGG (SEQ ID NO: 28))2-E3-IRDye800 (control) in human OE33 xenograft tumors to characterize pharmacokinetics. […] The mean intensity for either modality regressed to baseline at ˜24 hours post-injection.

Series [4] deals with human OE33 xenograft tumors. The series is described as follows: In vivo photoacoustic (PA) imaging of OE33 xenograft tumors (IRDye800). The arrangement: species or system mice. Conditions: for Photoacoustic T/B ratio, mean: 2 hours post-injection. As to the method: as §1
Dual-modal images were collected at 2 hours following heterodimer injection to assess imaging depth. […] An ultrasound image confirmed tumor structure, FIG. 20D.

Series [5] is described as follows: FL intensity in serum of tumor bearing mice over 48 hours. It counts as in vivo. Conditions: mouse, 45 nmol. As to the method: FIG. 19A) White light and FIG. 19B) FL images (λex=800 nm) are shown of heterodimer distribution in major organs at 2 hours post-injection. FIG. 19C) Mean (±SD) fluorescence intensity for heterodimer and control peptide was shown from n=6 mice each. […] FIG. 19D) FL intensity from serum of tumor bearing mice injected with heterodimer (300 μM, 150 μL PBS, n=6) is shown over 48 hours. Blood prior to heterodimer injection is shown as control.
(§2) Tumor-bearing mice were sacrificed at 2 hours post-injection of heterodimer or control peptide.

The test system of series [6] is human OE33 xenograft tumors. The series is described as follows: Biodistribution of IRDye800 heterodimer in major organs. More on the design: species or system mice. As to conditions: mouse, in vivo. As to the method: as §2
The subject of the next series is SKBr3 cells. The series is described as follows: Confocal cell surface binding of IRDye800 heterodimer to cell panel. It counts as cell-based, human. As to the method:
Confocal microscopy was performed to validate specific heterodimer binding. […] AF568-labeled anti-EGFR and AF488-labeled anti-HER2 antibodies were used as positive controls to confirm EGFR and HER2 expression by the cell panel. Heterodimer and antibody binding to the surface (arrows) of SKBr3 cells co-localize, and a Pearson's coefficient of ρ=0.58 and 0.65 was measured for EGFR and HER2, respectively, on merged images, FIG. 23A-F.

Series [7] relates to OE19, OE21, OE33 and SKBr3 cancer cells. The series is described as follows: Cytotoxicity of IRDye800 heterodimer in panel of human cancer cells. It counts as cell-based. As to conditions: 48 hours, concentrations up to 500 μg/mL.
The conditions of series [8]: Marshall et al.; cited from earlier work.
Series [9] relates to OE33 cells. Kind of series: Apparent dissociation constant by flow cytometry with OE33 cells. It counts as binding, human. As to conditions: flow cytometry, 4° C. As to the method: The apparent dissociation constant (Kd) was measured to assess binding affinity of the heterodimer to OE33 cells. The heterodimer was serially diluted in PBS at concentrations of about 0, 10, 25, 50, 100, and 200 nM with about […] at 4° C. for one hour and washed with cold PBS. The mean fluorescence intensities were measured with flow cytometry (BD LSRII, BD Biosciences). The equilibrium dissociation constant Kd 1/Ka was calculated with a least-squares fit of the data to the nonlinear equation I=(I0+ImaxKa[X])/(I0+Ka[X]). I0 and Imax are the initial and maximum fluorescence intensities, corresponding to no peptide and at saturation, respectively, and [X] represents the concentration of bound peptide. Prism 5.0 software (Graphpad Inc.) was used to calculate Kd and Ka.
A general note: In flow cytometry, cells or beads pass a laser one at a time.

The subject of series [10] is OE33 cells. Kind of series: Apparent association time constant by flow cytometry with OE33 cells. It counts as binding, human. As to conditions: for apparent association time constant Ka: flow cytometry, 1 μM, 4° C.; for apparent association time constant (time): value in brackets after Ka. As to the method:
The apparent association time constant (Ka) was measured to assess binding kinetics to OE33 cells. OE33 cells were grown to about 80% confluence in 10 cm dishes, and cells were then detached with PBS-based cell dissociation buffer (Invitrogen). About 10^5 cells were incubated with 1 μM of the heterodimer at 4° C. for different time periods ranging from […]. The cells were centrifuged, washed with cold PBS, and fixed with 4% PFA. Flow cytometry was performed, and the median fluorescence intensity (y) was ratioed with that of OE33 cells without addition of peptide at time points (t) using Flowjo software. The rate constant K was calculated by fitting the data to the first-order kinetics model, y(t)=Imax[1−exp^(−kt)], where Imax=maximum value, using Prism 5.0 software.

“And” between values parts separate entries of the source, which are not always exact repeats. Equal entries are not always repeated. “Also recorded” adds a separate entry of the source. Bridge positions count the residues as written; N and C are the ends. Square brackets hold non-standard residues; d marks the D form. Ends that are not written are not given here. Peptide text beside a SMILES is read from it. I, II: the chains in the order shown. * marks the point of attachment. X1 = CC1(C)C(=CC=C2CCCC(C=CC3=[N+](CCCCCC(=O)NCCN4C(=O)CC(*)C4=O)c4ccc(S(=O)(=O)O)cc4C3(C)C)=C2Oc2ccc(S(=O)(=O)O)cc2)N(CCCCS(=O)(=O)[O-])c2ccc(S(=O)(=O)O)cc21; AEEEA = NCCOCCOCCOCC(=O)O

In the case of “EGF (NSDSECPLSHDGYCLHDGVCMYIEALDKYACNCVVGYIGERCQYRDLKWWELR; Epidermal growth factor; UniProt P01133 971-1023, looked up) [an endogenous ligand for EGFR, positive control, reference compound]”, in [1] (EGF 100 ng/mL, positive control), the “p-AKT and p-ERK” value is “strong phosphorylation activity; also recorded: increased expression”.

Take KSPNPRF (also: FITC label): the “mean fluorescence intensity with binding to Flo1-HER2” value with Flo1-HER2 cells is “highest mean fluorescence intensity”.

Turning to `CC1(C)C(=CC=C2CCCC(C=CC3=[N+](CCCCCC(=O)NCCN4C(=O)CC(SC[C@H](NC(=O)[C@H](CCCCNC(=O)COCCOCCOCCNC(=O)[C@H](CCC(=O)O)NC(=O)[C@H](CCCNC(=N)N)NC(=O)[C@@H]5CCCN5C(=O)[C@H](CCCCN)NC(=O)[C@H](Cc5c[nH]cn5)NC(=O)[C@H](CCCNC(=N)N)NC(=O)[C@@H](N)CCC(N)=O)NC(=O)COCCOCCOCCNC(=O)[C@H](Cc5ccccc5)NC(=O)[C@H](CCCNC(=N)N)NC(=O)[C@@H]5CCCN5C(=O)[C@H](CC(N)=O)NC(=O)[C@@H]5CCCN5C(=O)[C@H](CO)NC(=O)[C@@H](N)CCCCN)C(N)=O)C4=O)c4ccc(S(=O)(=O)O)cc4C3(C)C)=C2Oc2ccc(S(=O)(=O)O)cc2)N(CCCCS(=O)(=O)[O-])c2ccc(S(=O)(=O)O)cc21` (stereo partly drawn) [QRH*-KSP*-E3-IRDye800] (I: H-KSPNPRF[AEEEA]KC(X1)-NH2 / II: H-QRHKPRE[AEEEA]; amide I:9-II:C), in [2] (OE33 xenograft tumor sections, 3 boxes of 20×20 μm2), the T/B ratio is given as 5.0±0.8. Further, the “binding to surface of OE33 xenograft tumor cells” value in series [2] (immunofluorescence of sections) is “strong binding”. Moreover, in [3], the “Fluorescence T/B ratio, mean (±SD)” value came to 3.89±0.94. Further, the “time of peak FL T/B ratio / intensity post-injection” value in series [3] (intravenous) stood at 2 h. For the same compound, in [3] (mouse, in vivo), the “mean FL T/B ratio versus control peptide or PBS” value is given as “significantly greater”. Moreover, the “time of regression of FL intensity to baseline / clearance” value in series [3] (post-injection) is around 24 h. Moreover, the “Photoacoustic T/B ratio, mean” value in series [4] turned out to be 2.44±0.36. Also, the “time of peak PA T/B ratio / intensity post-injection” value in series [4] (intravenous) amounted to 2 h. Besides, in series [4] (mouse, in vivo), the “mean PA T/B ratio versus control peptide or PBS” value is “significantly greater”. The “time of regression of PA intensity to baseline / clearance” value in series [4] (post-injection) was around 24 h. In addition, the half-life (usually the time in which the quantity being followed falls by half) in [5] was around 3 h. In addition, in [6], the “tumor uptake (biodistribution)” value is “high tumor uptake”. Besides, the “binding to surface of SKBr3 cells” value in the series on SKBr3 cells (confocal microscopy) is listed as “Strong fluorescence intensity; also recorded: Strong binding”. The “mean fluorescence intensity SKBr3 versus OE21, OE19, and QhTERT cells” value in the series with SKBr3 cells (paired t-test) is recorded as “significantly greater”. The cytotoxicity result in series [7] was “Negligible cytotoxicity; also recorded: No cytotoxicity”.

In the case of IRDye800, the safety in animals result in series [8] is “safe”.

On to “QRH*-GGGSK-Cy5.5 (QRHKPREGGGSK-NH2; also: Cy5.5 label on C-terminal Lys side chain) [QRH*-Cy5.5]”, for which the Kd in the series with OE33 cells [9] came out at 98 nM. In addition, in the series on OE33 cells [10], the “apparent association time constant Ka” value is 0.21 min⁻¹; the “apparent association time constant (time)” value is 4.7 min and 4.8 min.

As for “(GGGAGGG)2-E3-IRDye800: control peptide for the IRDye800 heterodimer (also: dimer via E3 linker, IRDye800 label) [reference compound]”, in series [3], the “Fluorescence T/B ratio, mean (±SD)” value stood at 3.89±0.94. Further, the “Photoacoustic T/B ratio, mean” value in series [4] is reported as 1.44±0.21.

As for `CS(=O)(=O)CCNCc1ccc(-c2ccc3ncnc(Nc4ccc(OCc5cccc(F)c5)c(Cl)c4)c3c2)o1` [lapatinib, reference compound], in series [1] (100 nM lapatinib), the “expression of phosphorylated EGFR / ErbB2 / AKT / ERK” value was “reduced expression”.

Regarding “KSP*-GGGSK-Cy5.5 (KSPNPRFGGGSK-NH2; also: Cy5.5 label on C-terminal Lys side chain) [KSP*-Cy5.5]”, the Kd with OE33 cells [9] was 54 nM. In addition, in the series on OE33 cells [10], the “apparent association time constant Ka” value is 0.35 min⁻¹; the “apparent association time constant (time)” value is 2.8 min and 2.9 min.
